Here are results for four molecules from patent US11236147B2, “Methods and compositions for the inhibition of TRPV4” (CHILDREN'S MEDICAL CENTER CORPORATION, priority 2013, dated 2022).

“Also recorded” adds a separate entry of the source.

The target in data set [1] is T1, TRPV4 (Homo sapiens, UniProt Q9HBA0).
T1 construct: Transient increases in intracellular calcium were detected quickly after force application in HUVE cells treated with control siRNA; endogenous in cells; host or cells: HUVE cells (ATCC) treated with control or CD98 siRNA
As to the kind of experiment: Calcium imaging: calcium influx by chemical stimulation (4α-PDD). The data set is classed as cell-based. How it is done:
(§1) FIG. 6A depicts a graph of the relative change in cytosolic calcium in response to static stretch (20%, 4 second arrow) in Fluo-4-loaded CE cells treated with control or CD98 siRNA. FIG. 6B depicts a graph of the average relative increases in cytosolic calcium induced by mechanical strain in HUVE cells treated with control or CD98 siRNA. FIG. 6C depicts a graph of the relative change in cytosolic calcium in response to 4α-PDD (10 μM) in Fluo-4-loaded CE cells treated with control or CD98 siRNA. FIG. 6D depicts a graph of the average relative increases in cytosolic calcium induced by chemical strain in HUVE cells treated with control or CD98 siRNA.
(§2) Specific inhibition of mechanical activation of TRPV4 activity. Moreover, TRPV4 is specifically activated by mechanical strain (12). To examine whether CD98 transducse the signal by mechanical stimulation through TRPV4, the calcium influx by mechanical stimulation was investigated. Transient increases in intracellular calcium were detected quickly after force application in HUVE cells treated with control siRNA. […] TRPV4 is also activated by chemical stimulation such as 4α-phorbol 12, 13-didecanoate (4α-PDD).
(§3) Mechanical strain application, measurement of cell orientation, Calcium Imaging were performed as described (Thodeti et al., 2009)

For data set [2], the target named is T1, TRPV4. The conditions noted are these: human lung-on-a-chip microdevice, IL2-induced; cited from earlier work.
The target of data set [3] is T2, TRPV4 (Rattus norvegicus, UniProt Q9ERZ8).
T2 construct: host or cells: rats, in vivo
As to conditions: rats; cited from earlier work.

In data set [4] the target is T3, TRPV4 (Mus musculus, UniProt Q9EPK8).
T3 construct: host or cells: mice, in vivo
The conditions noted are these: mice; cited from earlier work.

The target of data set [5] is T4, TRPV4 (Canis lupus familiaris, UniProt A0A8I3PAV3).
T4 construct: host or cells: dog, in vivo
As to conditions: dog; cited from earlier work.

Data set [6] concerns binding between β1-integrin and TRPV4. As to the kind of experiment: Immunoprecipitation of TRPV4 / β1-integrin binding in HUVE cells after CD98 siRNA knock down. The data set is classed as cell-based, human. The conditions noted are these: CD98 siRNA vs control siRNA, co-immunoprecipitation. The text has this:
(§4) The cells were transfected with control or CD98 siRNA. The amount of each component in the total cell lysates is given in the left panel. In the right lanses the cell lysates were immunoprecipitates with rabbit anti-TRPV4 (upper) or mouse anti-β1-integrin antibody (lower).
(§5) CD98 mediates the binding between TRPV4 and β1-integrin at focal adhesion. The question is what the molecular mechanism is by which CD98 mediates the signaling from β1-integrin to TRPV4. CD98 is important for surface expression and clustering of β1-integrin in MCF7 cells (11). Therefore, it was examined whether CD98 mediates the binding between β1-integrin and TRPV4 using siRNA-based knockdown of CD98. […] Thus, CD98 deficiency doesn't affect the formation of focal adhesion.
(§6) siRNA knock down of CD98. RNA interference assay was conducted with human CD98 siRNA duplexes: 5′-[…]-3′ (SEQ ID NO: 21) and 5′-[…]-3′ (SEQ ID NO: 22). Cells were transfected with 50 nM of the siRNA duplexes in Opti-MEM™ (Invitrogen) using silentFect Lipid Reagent for RNAi (BIO-RAD), according to the manufacturer's instructions.
Immunoprecipitation. Cells were extracted in ice-cold TRITON™ buffer (50 mM Tris-HCL, pH 7.4, containing 150 mM NaCl, 1% TRITONX100™, 5 mM EDTA). […] Subsequently the beads were isolated by magnet and washed five times with TRITON™ buffer and then were detected by SDS-PAGE and immunoblotting.

In data set [7] the test system is HUVE cells. The data set can be described thus: Localization of TRPV4, CD98, integrin and vinculin at focal adhesions (TIRF / immunofluorescence). The class given is cell-based, human. The conditions noted are these: CD98 siRNA. The text has this:
TRPV4 associates with CD98 and β1-integrin at focal adhesion. The terminal 6 amino acid residues at the carboxy end of the β1-integrin cytoplasmic mediate calcium signaling and are required for rapid force induced TRPV4-mediated calcium signaling (10). It was postulated that CD98, which binds to the last 6 carboxy terminal amino acids of β1-integrin, is involved in the TRPV4 activation by β1-integrin using genetically engineered mutant integrin constructs. First, it was confirmed that CD98 binds to integrins through the region of the β1-integrin tail using β1-integrin mutant constructs to transfect HEK293T cells followed by an immunoprecipitation assay. It was also confirmed that TRPV4 also interacts with the same region of β1-integrin using the same β1-integrin mutant constructs (data not shown). To explore the binding between those molecules, whether CD98 and β1-integrin can be co-precipitated from HUVE cell lysates using anti-TRPV4 antibody was determined (FIG. 1A). TRPV4 similarly precipitates with either anti-β1-integrin or anti-CD98 antibody (FIG. 1B). Moreover, it was confirmed that TRPV4 overlapped with CD98 at vinculin positive focal adhesions by Total Internal Reflection Fluorescence (TIRF, data not shown).
siRNA knock down of CD98. RNA interference assay was conducted with human CD98 siRNA duplexes: 5′-[…]-3′ (SEQ ID NO: 21) and 5′-[…]-3′ (SEQ ID NO: 22). […]

Data set [8] relates to HUVE cells. The data set can be described thus: Scratch wound cell migration assay. The data set is classed as cell-based, human. As to conditions: monolayer HUVE cells, CD98 siRNA vs control siRNA.
Description: as §5
It was next asked whether CD98 serves to link β1-integrin to TRPV4. […] Thus, CD98 is not required for focal adhesion formation or function. […] Although TRPV4 expression was not decreased, TRPV4 couldn't localize at focal adhesions (data not shown).

Data set [9] has as its system HUVE cells. The data set can be described thus: Actin rearrangement / cell orientation after 20% uniaxial cyclic strain. The data set is classed as cell-based, human. How it is done:
CD98 involves actin rearrangement on mechanotransduction. To confirm that CD98 translates the mechanical signal from β1-integrin to TRPV4 by mediating the binding, it was examined whether CD98 is required for the actin arrangement induced by cyclic strain. To analyze it, HUVE cells were cultured on flexible fibronectin-coated substrates and subjected to 20% uniaxial cyclic strain using a FlexrCell™ Tension Plus system. […] In contrast, this response was abolished by the treatment with CD98 siRNA (FIG. 5).
as §3
To confirm that CD98 translates the mechanical signal from β1-integrin to TRPV4 by mediating the binding, it was examined whether CD98 is required for the actin arrangement induced by cyclic strain. To analyze it, HUVE cells were cultured on flexible fibronectin-coated substrates and subjected to 20% uniaxial cyclic strain using a FlexrCell Tension Plus™ system. […] In contrast, this response was abolished by the treatment with CD98 siRNA (FIG. 5).

For data set [10], the system named is TRPV4. The data set can be described thus: Calcium imaging: calcium influx by mechanical stimulation. The class given is cell-based, human. As to conditions: HUVE cells, CD98 siRNA vs control siRNA, Fluo-4, static stretch 20%. On the procedure: as §1, §2, §3
For data set [11], the system named is TRPV4. The data set can be described thus: TRPV4 expression in total cell lysates after CD98 knock down. The class given is cell-based, human. The conditions noted are these: HUVE cells, CD98 siRNA. On the procedure:
as §4, §6

Data set [12] deals with T5, binding between β1-integrin and TRPV4 (Homo sapiens, UniProt P05556+Q9HBA0).
T5 construct: endogenous in cells; host or cells: HEK293T cells (ATCC); only the HA-CD98 high homology domain is transfected
The data set can be described thus: Immunoprecipitation binding assay in HEK293T cells transfected with HA-linked CD98 high homology domain. The data set is classed as cell-based. As to conditions: HEK293T cells, 2.5, 5 μg HA-linked CD98 high homology domain vs HA vector, 24 h. How it is done: 2.5, 5 μg HA-linked CD98 high homology domain or 5 μg HA vector was transfected into HEK293T cells, and the binding assay was performed 24 h later. The bottom panel gives the amount of each transgene in total cell lysates of respective transfectants. In the top or the 3rd panel, the lysates were immunoprecipitated with an anti-β1-integrin or TRPV4 antibody, and the amount of TRPV4 or β1-integrin in the precipitates was blotted with each antibodies. The 2nd or the 4th panel gives the amount of β1-integrin or TRPV4 in total cell lysates.
Immunoprecipitation. Cells were extracted in ice-cold TRITON™ buffer (50 mM Tris-HCL, pH 7.4, containing 150 mM NaCl, 1% TRITONX100™, 5 mM EDTA). Cell extracts were centrifuged at 10000 g for 15 min at 4° C. prior to being immunoprecipitated with each antibodies and DYNABEADS™ Magnetic Beads (Invitrogen) at 4° C. Subsequently the beads were isolated by magnet and washed five times with TRITON™ buffer and then were detected by SDS-PAGE and immunoblotting.
As described above, high homology domain of CD98 is important for the binging to either β1-integrin or TRPV4. […] Therefore, CD98 mediates the binding between β1-integrin and TRPV4 at focal adhesion through high homology domain of CD98.

T1 sequence (Q9HBA0 whole entry): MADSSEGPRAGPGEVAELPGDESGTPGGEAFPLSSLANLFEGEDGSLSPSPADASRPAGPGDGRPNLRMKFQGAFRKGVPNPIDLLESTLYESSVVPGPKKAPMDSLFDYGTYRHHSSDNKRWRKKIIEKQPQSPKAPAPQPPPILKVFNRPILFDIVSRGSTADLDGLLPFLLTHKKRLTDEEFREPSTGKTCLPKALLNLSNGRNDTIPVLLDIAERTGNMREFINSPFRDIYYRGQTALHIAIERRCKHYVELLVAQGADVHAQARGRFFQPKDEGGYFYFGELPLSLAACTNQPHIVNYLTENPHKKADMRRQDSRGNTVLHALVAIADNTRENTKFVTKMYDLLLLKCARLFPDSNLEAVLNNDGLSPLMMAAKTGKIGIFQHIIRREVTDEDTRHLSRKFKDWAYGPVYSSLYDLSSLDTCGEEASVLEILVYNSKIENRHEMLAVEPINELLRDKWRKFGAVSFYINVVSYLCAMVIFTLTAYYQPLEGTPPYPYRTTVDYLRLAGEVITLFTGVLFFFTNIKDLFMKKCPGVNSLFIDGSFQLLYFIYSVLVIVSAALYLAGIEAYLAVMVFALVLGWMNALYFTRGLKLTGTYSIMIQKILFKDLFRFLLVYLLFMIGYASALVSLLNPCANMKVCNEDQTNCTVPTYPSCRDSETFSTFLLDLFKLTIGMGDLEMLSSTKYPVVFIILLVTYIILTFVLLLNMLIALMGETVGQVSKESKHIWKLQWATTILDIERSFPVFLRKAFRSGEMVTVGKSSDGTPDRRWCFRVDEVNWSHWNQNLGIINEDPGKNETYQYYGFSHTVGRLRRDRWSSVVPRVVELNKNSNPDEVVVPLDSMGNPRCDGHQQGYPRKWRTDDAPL
T5 sequence (Q9HBA0 whole entry, the tested form may be a part): as the sequence (Q9HBA0 whole entry) above
T5 sequence (P05556 21-798): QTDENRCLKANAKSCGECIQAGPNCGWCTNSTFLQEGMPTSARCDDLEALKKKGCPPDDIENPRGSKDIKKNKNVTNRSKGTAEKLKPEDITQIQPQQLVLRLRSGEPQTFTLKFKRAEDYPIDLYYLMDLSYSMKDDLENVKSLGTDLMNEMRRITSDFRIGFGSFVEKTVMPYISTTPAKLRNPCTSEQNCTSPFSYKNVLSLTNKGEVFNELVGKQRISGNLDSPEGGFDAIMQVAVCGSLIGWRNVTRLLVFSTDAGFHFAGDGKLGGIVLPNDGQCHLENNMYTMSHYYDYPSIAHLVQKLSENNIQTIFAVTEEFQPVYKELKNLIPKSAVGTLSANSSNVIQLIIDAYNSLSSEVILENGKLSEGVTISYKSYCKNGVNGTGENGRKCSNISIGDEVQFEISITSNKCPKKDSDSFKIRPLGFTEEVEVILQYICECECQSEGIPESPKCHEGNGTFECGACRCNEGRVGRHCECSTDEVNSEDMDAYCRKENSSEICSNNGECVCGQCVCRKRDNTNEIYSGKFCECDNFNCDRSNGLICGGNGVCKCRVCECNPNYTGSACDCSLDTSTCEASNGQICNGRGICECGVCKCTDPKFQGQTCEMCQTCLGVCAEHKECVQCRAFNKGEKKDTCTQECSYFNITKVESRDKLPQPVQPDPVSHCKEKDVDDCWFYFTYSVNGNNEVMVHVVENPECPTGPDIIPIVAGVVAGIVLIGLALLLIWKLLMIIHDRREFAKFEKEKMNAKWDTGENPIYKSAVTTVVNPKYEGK
T2 sequence (Q9ERZ8 whole entry): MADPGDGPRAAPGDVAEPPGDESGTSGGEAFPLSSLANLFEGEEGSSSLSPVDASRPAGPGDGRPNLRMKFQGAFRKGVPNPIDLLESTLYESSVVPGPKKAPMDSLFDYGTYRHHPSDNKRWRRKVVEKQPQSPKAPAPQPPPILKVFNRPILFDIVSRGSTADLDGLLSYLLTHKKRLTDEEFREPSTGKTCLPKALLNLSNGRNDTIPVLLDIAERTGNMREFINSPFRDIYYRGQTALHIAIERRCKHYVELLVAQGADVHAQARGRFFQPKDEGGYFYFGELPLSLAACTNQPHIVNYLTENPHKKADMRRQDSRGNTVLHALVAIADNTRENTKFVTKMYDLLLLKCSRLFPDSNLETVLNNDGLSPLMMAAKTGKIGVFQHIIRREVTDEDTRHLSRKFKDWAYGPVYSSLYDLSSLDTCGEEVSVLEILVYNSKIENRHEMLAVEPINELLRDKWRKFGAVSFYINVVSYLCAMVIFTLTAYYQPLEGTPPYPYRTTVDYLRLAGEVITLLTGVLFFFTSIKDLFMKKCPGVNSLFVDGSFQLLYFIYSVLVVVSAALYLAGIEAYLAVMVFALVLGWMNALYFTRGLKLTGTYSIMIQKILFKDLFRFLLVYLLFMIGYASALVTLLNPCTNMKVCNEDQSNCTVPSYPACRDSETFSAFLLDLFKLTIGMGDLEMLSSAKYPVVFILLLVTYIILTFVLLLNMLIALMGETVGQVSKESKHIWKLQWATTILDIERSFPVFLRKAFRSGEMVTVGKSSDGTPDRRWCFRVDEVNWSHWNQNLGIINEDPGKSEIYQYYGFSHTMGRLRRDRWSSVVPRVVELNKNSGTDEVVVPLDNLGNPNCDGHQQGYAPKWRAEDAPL
T4 sequence (A0A8I3PAV3 1-828): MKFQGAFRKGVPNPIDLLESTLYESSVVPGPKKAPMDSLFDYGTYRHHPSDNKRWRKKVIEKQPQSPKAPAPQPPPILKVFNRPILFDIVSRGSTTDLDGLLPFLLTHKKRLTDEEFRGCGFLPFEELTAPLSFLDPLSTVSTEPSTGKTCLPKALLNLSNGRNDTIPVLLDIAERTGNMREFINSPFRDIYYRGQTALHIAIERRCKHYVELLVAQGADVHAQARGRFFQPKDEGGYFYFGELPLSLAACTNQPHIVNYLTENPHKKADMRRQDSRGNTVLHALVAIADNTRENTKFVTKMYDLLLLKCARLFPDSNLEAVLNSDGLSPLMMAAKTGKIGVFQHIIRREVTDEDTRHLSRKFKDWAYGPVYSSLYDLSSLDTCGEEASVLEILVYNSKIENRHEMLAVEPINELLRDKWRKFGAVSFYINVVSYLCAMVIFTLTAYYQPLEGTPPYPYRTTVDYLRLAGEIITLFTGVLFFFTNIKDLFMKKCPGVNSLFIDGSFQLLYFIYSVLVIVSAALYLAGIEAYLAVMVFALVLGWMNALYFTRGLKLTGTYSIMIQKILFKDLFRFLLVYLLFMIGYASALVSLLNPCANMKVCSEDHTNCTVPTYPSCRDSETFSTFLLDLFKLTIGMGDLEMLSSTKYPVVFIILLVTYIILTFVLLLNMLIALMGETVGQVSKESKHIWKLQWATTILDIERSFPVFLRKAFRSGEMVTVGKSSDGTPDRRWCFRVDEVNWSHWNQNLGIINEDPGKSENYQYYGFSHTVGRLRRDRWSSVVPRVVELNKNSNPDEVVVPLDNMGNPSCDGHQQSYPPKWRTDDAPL
T3 sequence (Q9EPK8 whole entry): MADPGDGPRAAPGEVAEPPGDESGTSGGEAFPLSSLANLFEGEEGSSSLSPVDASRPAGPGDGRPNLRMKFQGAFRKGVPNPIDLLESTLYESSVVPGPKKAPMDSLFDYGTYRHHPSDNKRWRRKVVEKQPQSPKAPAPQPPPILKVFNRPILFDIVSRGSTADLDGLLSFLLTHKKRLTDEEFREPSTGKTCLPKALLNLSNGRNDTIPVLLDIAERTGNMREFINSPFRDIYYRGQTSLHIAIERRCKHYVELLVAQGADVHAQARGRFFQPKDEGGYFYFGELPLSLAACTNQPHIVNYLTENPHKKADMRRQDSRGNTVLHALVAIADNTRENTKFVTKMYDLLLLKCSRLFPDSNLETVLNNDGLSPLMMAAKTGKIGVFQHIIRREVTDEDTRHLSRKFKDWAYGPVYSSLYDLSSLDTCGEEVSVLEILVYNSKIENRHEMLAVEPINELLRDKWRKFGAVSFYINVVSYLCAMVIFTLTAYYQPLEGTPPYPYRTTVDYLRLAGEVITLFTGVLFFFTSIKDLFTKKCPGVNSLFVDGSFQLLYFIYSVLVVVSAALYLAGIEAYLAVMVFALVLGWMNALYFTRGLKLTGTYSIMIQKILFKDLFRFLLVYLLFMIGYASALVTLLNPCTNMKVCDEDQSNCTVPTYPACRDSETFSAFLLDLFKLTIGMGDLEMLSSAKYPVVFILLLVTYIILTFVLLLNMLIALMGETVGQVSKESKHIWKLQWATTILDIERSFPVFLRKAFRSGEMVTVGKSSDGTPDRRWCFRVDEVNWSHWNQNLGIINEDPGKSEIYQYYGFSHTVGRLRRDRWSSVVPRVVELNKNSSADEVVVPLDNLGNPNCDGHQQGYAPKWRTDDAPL

Consider `CCCCCCCCCC(=O)O[C@@H]1[C@@H](C)[C@@]2(O)[C@@H](C=C(CO)C[C@@]3(O)C(=O)C(C)=C[C@@H]23)[C@@H]2C(C)(C)[C@]12OC(=O)CCCCCCCCC` [4α-PDD, 4α-phorbol 12, 13-didecanoate], for which the “intracellular calcium in response to 4α-PDD” value on TRPV4 [1] (HUVE cells treated with either control or CD98 siRNA, 4α-PDD 10 μM) is listed as “rapid increase in intracellular calcium”.

As to `O=C(NC1(c2ccccc2)CC1)c1c(CN2CCC(N3CCCCC3)CC2)c(-c2cccc(C(F)(F)F)c2)nc2cc(Br)ccc12` [GSK2193874], on TRPV4 [2], the “pulmonary vascular leakage and lung edema development” value was “prevent pulmonary vascular leakage and lung edema development”. For the same molecule, the cardiogenic pulmonary edema result at TRPV4 [3], at TRPV4 [4] and on TRPV4 [5] was “prevents cardiogenic pulmonary edema” throughout.

As for “CD98 siRNA: human CD98 siRNA duplexes: 5′-GAAUGGUCUGGUGAAGAUC-3′ (SEQ ID NO: 21) and 5′-GAUCUUCACCAGACCAUUC-3′ (SEQ ID NO: 22) (listed as RNA, chemistry not given here; listed as Homo sapiens)”, the “association (binding) of TRPV4 and β1-integrin” value in data set [6] is “can't bind to β1-integrin; also recorded: decreased association of TRPV4 and β1-integrin; also recorded: greatly reduced the amount of the binding between β1-integrin and TRPV4”. Also, in the data set with HUVE cells [7], the “TRPV4 localization at focal adhesions” value is “can't localize at focal adhesion; also recorded: loss of TRPV4 from focal adhesions; also recorded: prevented; also recorded: greatly reduced the amount of both CD98 and TRPV4 within focal adhesions”; the “recruitment of integrins or vinculin to focal adhesions” value is “no effect”. In addition, in the data set with HUVE cells [8], the “cell migration in scratch wound assay” value was “normally restored; also recorded: did not interfere with cell migration”. Besides, in the data set with HUVE cells [9] (HUVE cells, CD98 siRNA vs control siRNA, 20% uniaxial cyclic strain, 2 hours), the “stress fiber realignment (actin rearrangement) induced by cyclic strain” value was “inhibited; also recorded: abolished”. For the same molecule, the “transient increase in intracellular calcium after force application (mechanical activation of TRPV4)” value in the data set with TRPV4 [10] is “inhibited; also recorded: didn't show this response; also recorded: inhibits calcium influx”. For the same molecule, in the data set with TRPV4 [1] (HUVE cells, CD98 siRNA vs control siRNA), the “calcium influx of TRPV4 activation by chemical treatment” value is on record as “not inhibited; also recorded: not by chemical activators”. The TRPV4 expression entry in the data set on TRPV4 [11] was “not decreased”.

In the case of “high homology domain of CD98: domain of CD98 having the sequence of SEQ ID NO: 1; N-terminal region highly conserved from Drosophila to mammals (KFTGLSKEELLKVAGSPGWVRTRWALLLLFWLGWLGMLAGAVVIIVRAPRC)”, the “β1-integrin binding to TRPV4” value was “decreased” in data set [12] and “inhibited” in data set [12] (listed as high homology domain). Moreover, in the data set with HUVE cells [9] (HUVE cells overexpressing high homology domain of CD98 vs vector), the “actin rearrangements after mechanical strain” value is recorded as “didn't show actin rearrangements”.
